The source of these data is patent EP0176444A1, “Process for the preparation of derivatives of 4H-1,2,4-triazole, triazoles so obtained, their use as medicaments, and pharmaceutical compositons containing them” (ROUSSEL-UCLAF, priority 1984, dated 1986).

Test [1] deals with arthrite chronique à l'adjuvant. The test is described as follows: Anti-inflammatory activity: chronic adjuvant arthritis (preventive treatment). The test is classed as in vivo, rat. The method, then:
L'injection d'adjuvant du type Freund dans une patte postérieure provoque, chez le rat, l'apparition rapide d'une lésion inflammatoire primaire dans cette patte, puis, après un temps de latence de 13 à 15 jours, le déclenchement d'une arthrite secondaire affectant notamment l'autre patte postérieure. Le test est pratiqué sur des rats mâles âgés de 42 à 50 jours, qui reçoivent en injection intraplantaire, 0,1 ml d'adjuvant de type "Freund" (suspension dans l'huile de vaseline de 6 mg par ml de mycobacterium butyricum tués).
Les animaux reçoivent le produit étudié, par voie orale, du jour 0 (jour de l'injection de l'adjuvant) jusqu'à la veille du sacrifice, pratiqué le jour 17. Des animaux témoins arthritiques, des animaux témoins normaux ne reçoivent que le véhicule. Les critères d'appréciation de l'activité des substances étudiées sont les augmentations de volume des pattes postérieures non injectées (inflammation secondaire) par rapport au volume moyen des pattes correspondantes de témoins normaux.
On détermine la DA50, c'est-à-dire la dose qui diminue de 50% les augmentations de volume des pattes postérieures des animaux traités par rapport aux animaux témoins.

Test [2] deals with mouvements répétés d'étirement et de torsion. In words: Analgesic activity: acetic acid-induced stretching (writhing) test, Koster. The test is classed as in vivo, souris. The note with it: 0.25 h; mouse, oral route half an hour before i.p. acetic acid 100 mg/kg; stretches counted for 15 min; dose giving 50 % decrease in number of stretches vs controls; read-out: DA50 (the source's name). An excerpt: Le test employé est basé sur le fait signalé par R. KOSTER et Coll., (Fed. Proc. 1959, 16412) selon lequel l'injection intrapéritonéale d'acide acétique provoque, chez la souris, des mouvements répétés d'étirement et de torsion pouvant persister pendant plus de six heures. Les analgésiques préviennent ou diminuent ce syndrome qui peut être considéré comme l'extériorisation d'une douleur abdominale diffuse. On utilise une solution d'acide acétique à 1 % dans l'eau. La dose déclenchant le syndrome est dans ces conditions de 0,01 cm^3/g, soit 100 mg/kg d'acide acétique.
Le produit étudié est administré par voie buccale une demi-heure avant l'injection d'acide acétique, les souris étant à jeun depuis la veille de l'expérience.
Les étirements sont observés et comptés pour chaque souris pendant une période d'observation de quinze minutes commençant aussitôt après l'injection d'acide acétique.
Les résultats sont exprimés au moyen de la DA50, c'est-à-dire la dose qui permet d'obtenir une diminution de 50 % du nombre des étirements par rapport aux animaux témoins.
In general terms: Writhing tests count abdominal constrictions after an irritant is injected.

Take `COc1ccc(-n2c(-c3ccc(N(C)C)cc3)nnc2[C@H](C)O)cc1` [Exemple 11, 5-/4-(diméthylamino)-phényl/ 4-(4-méthoxyphényl)α-méthyl 4H-1,2,4-triazol-3-méthanol]: the “activité anti-inflammatoire (arthrite chronique à l'adjuvant)” value in test [1] (male rats, oral route from day 0 to the day before sacrifice on day 17, volume increase of non-injected hind paws (secondary inflammation), result given in words only) is “activité notable”. Further, in test [2], the ED50 was determined as 4 mg/kg.

Take `COc1ccc(-n2c(-c3ccc(N(C)C)cc3)nnc2C(C)O)cc1` (stereo not drawn) [5-/4-(diméthylamino) phényl/ 4-(4-méthoxyphényl)α-méthyl 4H-1,2,4-triazole 3-méthanol]: the activité anti-inflammatoire entry in test [1] (general statement in the description: models of chronic inflammation) is “une certaine activité anti-infiammatoire”.
